Each structure is given as a SMILES string.

The first assay has as its target T1, rat NaPi-2b (Rattus norvegicus, UniProt Q9JJ09).
T1 construct: expressed in transfected cells; host or cells: Xenopus oocytes injected with cRNA
T1 sequence (Q9JJ09 1-695): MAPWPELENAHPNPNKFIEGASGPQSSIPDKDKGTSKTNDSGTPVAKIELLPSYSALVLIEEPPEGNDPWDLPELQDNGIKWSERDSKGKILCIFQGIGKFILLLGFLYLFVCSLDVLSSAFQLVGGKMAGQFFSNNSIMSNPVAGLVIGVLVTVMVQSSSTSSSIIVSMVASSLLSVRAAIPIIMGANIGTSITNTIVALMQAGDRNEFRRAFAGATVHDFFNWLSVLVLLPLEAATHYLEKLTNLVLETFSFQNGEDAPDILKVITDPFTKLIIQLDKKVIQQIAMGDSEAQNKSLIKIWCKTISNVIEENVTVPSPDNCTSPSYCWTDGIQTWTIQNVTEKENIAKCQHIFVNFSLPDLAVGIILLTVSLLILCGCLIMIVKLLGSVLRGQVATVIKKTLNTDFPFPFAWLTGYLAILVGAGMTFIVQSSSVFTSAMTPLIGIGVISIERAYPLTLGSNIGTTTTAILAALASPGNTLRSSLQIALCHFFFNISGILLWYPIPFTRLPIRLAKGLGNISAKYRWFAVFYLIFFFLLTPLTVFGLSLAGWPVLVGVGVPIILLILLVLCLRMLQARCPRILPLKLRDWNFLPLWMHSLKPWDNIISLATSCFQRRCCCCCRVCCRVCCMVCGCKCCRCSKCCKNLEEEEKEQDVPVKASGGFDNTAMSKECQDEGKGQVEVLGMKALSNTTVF
The experiment in a line: Sodium-dependent phosphate uptake of Xenopus oocytes which expressed NaPi-2b (32P). The format is cell-based. The note with it: Xenopus oocytes expressing rat NaPi-2b, 32P radioactive phosphorus; read-out: IC50 (phosphate uptake inhibitory activity). A digest of the protocol: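 Steps: rat NaPi-2b cDNA cloned from small intestine; cRNA made and injected into oocytes; 2-day expression; 32P phosphate uptake with compound; % inhibition at 300/100 μM taken from one curve.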
On to `Cc1ccc(/C=N/NC(=O)c2cc(N3CCC(C)CC3)ccc2NC(=O)c2cccc(CSCCO)c2)cc1C` [Compound 1069, N-[2-(3,4-Dimethyl-benzylidene-hydrazinocarbonyl)-4-(4-methyl-piperidin-1-yl)-phenyl]-3-(2-hydroxy-ethylsulfanylmethyl)-benzamide], for which the IC50 is less than 1 µM.

`COc1cc(OC)cc(C(=O)Nc2ccc(Br)cc2C(=O)N/N=C/c2ccc(Cl)cc2)c1` [Compound 117, N-[4-Bromo-2-(4-chloro-benzylidene-hydrazinocarbonyl)-phenyl]-3,5-dimethoxy-benzamide]: the concentration for half-maximal inhibition (IC50) was 0.58 µM. Turning to `CC(O)CN(Cc1ccc(C(=O)Nc2ccc(Br)cc2C(=O)N/N=C/c2cccc(F)c2)cc1)CC(C)O` (centres unmarked) [Compound 720, 4-{[Bis-(2-hydroxy-propyl)-amino]-methyl}-N-[4-bromo-2-(3-fluoro-benzylidene-hydrazinocarbonyl)-phenyl]-benzamide], the IC50 came out at 3.51 µM. Regarding `COCCOc1cc(NC(=O)c2cccc(CSCC(O)CO)c2)c(C(=O)N/N=C/c2ccc(C)c(C)c2)cc1OCCOC` (centres unmarked) [Compound 1015, 3-(2,3-Dihydroxy-propylsulfanylmethyl)-N-[2-(3,4-dimethyl-benzylidene-hydrazinocarbonyl)-4,5-bis-(2-methoxy-ethoxy)-phenyl]-benzamide], the IC50 was determined as 11.1 µM. The same measure, in the same setting: the result for `Cc1ccc(/C=N/NC(=O)c2cc(Br)ccc2NC(=O)c2ccc(CN3CCC(O)CC3)cc2)cc1` [Compound 325, N-[4-Bromo-2-(4-methyl-benzylidene-hydrazinocarbonyl)-phenyl]-4-(4-hydroxy-piperidin-1-ylmethyl)-benzamide] reads 2.56 µM; that for `CCN(CC)CCN(C)Cc1cccc(C(=O)Nc2ccc(Cl)cc2C(=O)N/N=C/c2cccc(F)c2)c1` [Compound 379, N-[4-Chloro-2-(3-fluoro-benzylidene-hydrazinocarbonyl)-phenyl]-3-{[(2-diethylamino-ethyl)-methyl-amino]-methyl}-benzamide], 0.97 µM; that for `COc1ccc(/C=N/NC(=O)c2cc(Br)ccc2NC(=O)c2ccc(CN3CCN(CC(=O)N4CCOCC4)CC3)cc2)cc1` [Compound 307, N-[4-Bromo-2-(4-methoxy-benzylidene-hydrazinocarbonyl)-phenyl]-4-[4-(2-morpholin-4-yl-2-oxo-ethyl)-piperazin-1-ylmethyl]-benzamide], 41.2 µM. For `COc1ccc(C(=O)Nc2ccc(I)cc2C(=O)N/N=C/c2cccc(C)c2)cc1OC` [Compound 206, N-[4-Iodo-2-(3-methyl-benzylidene-hydrazinocarbonyl)-phenyl]-3,4-dimethoxy-benzamide], the IC50 was less than 3 µM.

Consider `CCN(CC)CCN(C)Cc1cccc(C(=O)Nc2ccc(I)cc2C(=O)N/N=C/c2cccc(F)c2)c1` [Compound 472, 3-{[(2-Diethylamino-ethyl)-methyl-amino]-methyl}-N-[2-(3-fluoro-benzylidene-hydrazinocarbonyl)-4-iodo-phenyl]-benzamide], for which the IC50 is less than 3 µM.

Consider `COc1ccc(/C(C)=N/NC(=O)c2cc(Br)ccc2NC(=O)c2cccc(CN(CC(C)O)CC(C)O)c2)cc1` (centres unmarked) [Compound 997, 3-{[Bis-(2-hydroxy-propyl)-amino]-methyl}-N-{4-bromo-2-[1-(4-methoxy-phenyl)-ethylidene-hydrazinocarbonyl]-phenyl}-benzamide], for which the IC50 was 7.88 µM. Consider `COc1ccc(C(=O)Nc2ccc(C)cc2C(=O)N/N=C/c2ccc(F)cc2)cc1OC` [Compound 147, N-[2-(4-Fluoro-benzylidene-hydrazinocarbonyl)-4-methyl-phenyl]-3,4-dimethoxy-benzamide], for which the half-inhibitory concentration (IC50) is 7.68 µM. Take `CC(O)CN(Cc1cccc(C(=O)Nc2ccc(Cl)cc2C(=O)N/N=C/c2ccc(OCCCN(C)C)cc2)c1)CC(C)O` (centres unmarked) [Compound 998, 3-{[Bis-(2-hydroxy-propyl)-amino]-methyl}-N-{4-chloro-2-[4-(3-dimethylamino-propoxy)-benzylidene-hydrazinocarbonyl]-phenyl}-benzamide]: the concentration for half-maximal inhibition (IC50) was found to be 16.6 µM. Still for that read-out and setting: the result for `Cc1ccc(/C=N/NC(=O)c2cc(OCCCCF)ccc2NC(=O)c2cccc(CSCCO)c2)cc1` [Compound 1052, N-[4-(4-Fluoro-butoxy)-2-(4-methyl-benzylidene-hydrazinocarbonyl)-phenyl]-3-(2-hydroxy-ethylsulfanylmethyl)-benzamide] reads 1.33 µM; that for `CCN(CC)CCN(C)Cc1cccc(C(=O)Nc2ccc(Cl)cc2C(=O)N/N=C/c2ccc(OCCCN(C)C)cc2)c1` [Compound 999, N-{4-Chloro-2-[4-(3-dimethylamino-propoxy)-benzylidene-hydrazinocarbonyl]-phenyl}-3-{[(2-diethylamino-ethyl)-methyl-amino]-methyl}-benzamide], 58.2 µM; that for `CCN(CC)CCN(C)Cc1cccc(C(=O)Nc2ccc(Cl)cc2C(=O)N/N=C/c2cccc(O)c2)c1` [Compound 387, N-[4-Chloro-2-(3-hydroxy-benzylidene-hydrazinocarbonyl)-phenyl]-3-{[(2-diethylamino-ethyl)-methyl-amino]-methyl}-benzamide], 6.45 µM.

Turning to `CCN(CCO)Cc1ccc(C(=O)Nc2ccc(Cl)cc2C(=O)N/N=C/c2cccc(C)c2)cc1` [Compound 434, N-[4-Chloro-2-(3-methyl-benzylidene-hydrazinocarbonyl)-phenyl]-4-{[ethyl-(2-hydroxy-ethyl)-amino]-methyl}-benzamide], the IC50 stood at 7.78 µM.

In the case of `COc1ccc(/C=N/NC(=O)c2c(NC(=O)c3cccc(CN4CCN(CCO)CC4)c3)sc3c2CCCC3)cc1` [Compound 626, 3-[4-(2-Hydroxy-ethyl)-piperazin-1-ylmethyl]-N-[3-(4-methoxy-benzylidene-hydrazinocarbonyl)-4,5,6,7-tetrahydro-benzo-[b]thiophen-2-yl]-benzamide], the concentration for half-maximal inhibition (IC50) is less than 3 µM. Still for that read-out and setting: the result for `CCN(CC)CCN(C)Cc1cccc(C(=O)Nc2ccc(OCCOCCOC)cc2C(=O)N/N=C/c2ccc(C)cc2)c1` [Compound 1034, 3-{[(2-Diethylamino-ethyl)-methyl-amino]-methyl}-N-[4-[2-(2-methoxy-ethoxy)-ethoxy]-2-(4-methyl-benzylidene-hydrazinocarbonyl)-phenyl]-benzamide] reads 17.2 µM. Still for that read-out and setting: with `COc1ccc(C(=O)Nc2ccccc2C(=O)N/N=C/c2ccccc2Br)cc1OC` [Compound 10, N-[2-(2-Bromo-benzylidene-hydrazinocarbonyl)-phenyl]-3,4-dimethoxy-benzamide] the figure was 26.1 µM; with `COCCOc1cc(NC(=O)c2cccc(CSCC(O)CO)c2)c(C(=O)N/N=C/c2cccc(F)c2)cc1OCCOC` (centres unmarked) [Compound 1013, 3-(2,3-Dihydroxy-propylsulfanylmethyl)-N-[2-(3-fluoro-benzylidene-hydrazinocarbonyl)-4,5-bis-(2-methoxy-ethoxy)-phenyl]-benzamide], 8.89 µM. As for `CCN(CC)CCN(C)Cc1cccc(C(=O)Nc2scc(C)c2C(=O)N/N=C/c2ccc(C)c(C)c2)c1` [Compound 563, 3-{[(2-Diethylamino-ethyl)-methyl-amino]-methyl}-N-[3-(3,4-dimethyl-benzylidene-hydrazinocarbonyl)-4-methyl-thiophen-2-yl]-benzamide], the IC50 is less than 1 µM. Same read-out and setting: with `O=C(Nc1ccc(N2CCOCC2)cc1C(=O)N/N=C/c1ccc(Cl)c(C(F)(F)F)c1)c1cccc(CSCCO)c1` [Compound 1065, N-[2-(4-Chloro-3-trifluoromethyl-benzylidene-hydrazinocarbonyl)-4-morpholin-4-yl-phenyl]-3-(2-hydroxy-ethylsulfanylmethyl)-benzamide] the figure was 1.21 µM; with `Cc1cccc(/C=N/NC(=O)c2ccccc2NC(=O)c2ccc(F)cc2)c1` [Compound 78, 4-Fluoro-N-[2-(3-methyl-benzylidene-hydrazinocarbonyl)-phenyl]-benzamide], 7.17 µM.

As for `O=C(Nc1ccc(Cl)cc1C(=O)N/N=C/c1ccc(F)cc1)c1cccc(CSCc2ccco2)c1` [Compound 681, N-[4-Chloro-2-(4-fluoro-benzylidene-hydrazinocarbonyl)-phenyl]-3-(furan-2-ylmethylsulfanylmethyl)-benzamide], the IC50 was 25.9 µM. `CCN(CC)CCN(C)Cc1cccc(C(=O)Nc2c(C)csc2C(=O)N/N=C/c2ccc(Cl)c(C(F)(F)F)c2)c1` [Compound 344, N-[2-(4-Chloro-3-trifluoromethyl-benzylidene-hydrazinocarbonyl)-4-methyl-thiophen-3-yl]-3-{[(2-diethylamino-ethyl)-methyl-amino]-methyl}-benzamide]: the half-maximal inhibitory concentration (IC50) was 31 µM.

Still in this assay, the particulars now being: phosphate uptake, oocytes expressing rat NaPi-2b; 300 μM, determined from inhibition curve.
Compound `O=C(Nc1ccc(Br)cc1C(=O)NNCc1ccc(Cl)c(C(F)(F)F)c1)c1cccc(CSCCO)c1` [Compound 546, N-{4-Bromo-2-[N′-(4-chloro-3-trifluoromethyl-benzyl)-hydrazinocarbonyl]-phenyl}-3-(2-hydroxy-ethylsulfanylmethyl)-benzamide] showed an inhibition at 300 µM of 85.2%.

One may read the IC50 as the concentration that gives 50% inhibition. As a reminder, the inhibition is how much of the control response was suppressed.

The values above are taken from patent US8134015B2, “Compound inhibiting in vivo phosphorous transport and medicine containing the same” (Kyowa Hakko Kirin Co., Ltd., priority 2003, dated 2012).
